# Measurements from patent US20170253607A1, “LONG-ACTING HIV PROTEASE INHIBITOR” (Shionogi & Co., Ltd., priority 2014, published 2017).
# Target: HIV-1 PR (Human immunodeficiency virus type 1 group M subtype B, UniProt P04585)
# Assay: HIV-protease inhibitory activity assay (FRET peptide substrate)
# Format: biochemical
# Conditions: Test Example 1
# In short: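 HIV-1 PR (0.83 ng) preincubated with compounds 20 min at room temperature in 0.1 mol/L NaAc, 0.5 mol/L NaCl, 1 mmol/L EDTA, 1 mmol/L DTT, 0.05% Tween 20, pH 4.8. Cleavage of HiLyte Fluor 488/QXL 520 FRET peptide (2 μmol/L) read after 60 minutes at 485/535 nm; IC50 from four-parameter logistic fit.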
row,Compound,IC50 [nM]
1,COc1ccc(S(=O)(=O)N(CC(C)C)CC(O)C(Cc2ccc(NCc3ccccc3-c3cnc(-c4sc5c(c4C(=O)O)CC(C)(C)CC5)nc3)cc2)NC(=O)OC2COC3(C)OCCC23)cc1 (stereo not shown) [Compound I-712],2.02
2,COc1ccc(S(=O)(=O)N(CC(C)C)CC(O)C(Cc2ccc(NCc3ccccc3-c3ccc(-c4sc5c(c4C(=O)O)CC(C)(C)CC5)nc3)cc2)NC(=O)OC2COC3(C)OCCC23)cc1 (stereo not shown) [Compound I-713],1.69
3,COc1ccc(S(=O)(=O)N(CC(C)C)CC(O)C(Cc2ccc(N(C)Cc3nc(N4CCCC4)sc3-c3ccc(-c4sc5c(c4C(=O)O)CC(C)(C)CC5)cc3)cc2)NC(=O)OC2COC3(C)OCCC23)cc1 (stereo not shown) [Compound I-715],5.31
4,COc1ccc(S(=O)(=O)N(CC(C)C)CC(O)C(Cc2ccc(NCc3ccc(C)cc3C(=O)Nc3sc4c(c3C(=O)O)CC(C)(C)CC4)cc2)NC(=O)OC2COC3(C)OCCC23)cc1 (stereo not shown) [Compound I-716],3.95
5,COc1ccc(S(=O)(=O)N(CC(C)C)CC(O)C(Cc2ccc(NCc3cc(C)ccc3C(=O)Nc3sc4c(c3C(=O)O)CC(C)(C)CC4)cc2)NC(=O)OC2COC3(C)OCCC23)cc1 (stereo not shown) [Compound I-717],2.77
6,COc1ccc(S(=O)(=O)N(CC(C)C)CC(O)C(Cc2ccc(NCc3cccc(C)c3C(=O)Nc3sc4c(c3C(=O)O)CC(C)(C)CC4)cc2)NC(=O)OC2COC3(C)OCCC23)cc1 (stereo not shown) [Compound I-718],3.97
7,COc1ccc(S(=O)(=O)N(CC(C)C)CC(O)C(Cc2ccc(NCc3cc(-c4ccc(-c5ccccc5)cc4)ccc3-c3sc4c(c3C(=O)O)CC(C)(C)CC4)cc2)NC(=O)OC2COC3(C)OCCC23)cc1 (stereo not shown) [Compound I-721],2.24
8,CC=Cc1ccc(-c2sc3c(c2C(=O)O)CC(C)(C)CC3)c(CNc2ccc(CC(NC(=O)OC3COC4(C)OCCC34)C(O)CN(CC(C)C)S(=O)(=O)c3ccc(OC)cc3)cc2)c1 (stereo not shown) [Compound I-723],1.65
9,COc1ccc(S(=O)(=O)N(CC(C)C)CC(O)C(Cc2ccc(NCc3cc(-c4ccc5c(c4)[nH]c4ccccc45)ccc3-c3sc4c(c3C(=O)O)CC(C)(C)CC4)cc2)NC(=O)OC2COC3(C)OCCC23)cc1 (stereo not shown) [Compound I-724],1.83
10,COc1ccc(S(=O)(=O)N(CC(C)C)CC(O)C(Cc2ccc(NCc3cc(N4CC(C)(C)C4=O)ccc3-c3sc4c(c3C(=O)O)CC(C)(C)CC4)cc2)NC(=O)OC2COC3(C)OCCC23)cc1 (stereo not shown) [Compound I-728],2.96
11,COc1ccc(S(=O)(=O)N(CC(C)C)CC(O)C(Cc2ccc(NCc3cc(N4CCCCC4=O)ccc3-c3sc4c(c3C(=O)O)CC(C)(C)CC4)cc2)NC(=O)OC2COC3(C)OCCC23)cc1 (stereo not shown) [Compound I-729],1.64
12,COc1ccc(S(=O)(=O)N(CC(C)C)CC(O)C(Cc2ccc(N(C)Cc3cc(N4CC(C)(C)C4=O)ccc3-c3sc4c(c3C(=O)O)CC(C)(C)CC4)cc2)NC(=O)OC2COC3(C)OCCC23)cc1 (stereo not shown) [Compound I-730],2.84
13,COc1ccc(S(=O)(=O)N(CC(C)C)CC(O)C(Cc2ccc(N(C)Cc3cc(N4CCCCC4=O)ccc3-c3sc4c(c3C(=O)O)CC(C)(C)CC4)cc2)NC(=O)OC2COC3(C)OCCC23)cc1 (stereo not shown) [Compound I-731],1.96
14,COc1ccc(S(=O)(=O)N(CC(C)C)CC(O)C(Cc2ccc(NCc3cc(OC)ccc3C(=O)Nc3sc4c(c3C(=O)O)CC(C)(C)CC4)cc2)NC(=O)OC2COC3(C)OCCC23)cc1 (stereo not shown) [Compound I-732],3.26
15,COc1ccc(S(=O)(=O)N(CC(C)C)CC(O)C(Cc2ccc(N(C)Cc3cc(C(F)(F)F)ccc3C(=O)Nc3sc4c(c3C(=O)O)CC(C)(C)CC4)cc2)NC(=O)OC2COC3(C)OCCC23)cc1 (stereo not shown) [Compound I-734],15.4
16,COc1ccc(S(=O)(=O)N(CC(C)C)CC(O)C(Cc2ccc(NCC3CC(C)(C)CC3c3sc4c(c3C(=O)O)CC(C)(C)CC4)cc2)NC(=O)OC2COC3(C)OCCC23)cc1 (stereo not shown) [Compound I-735],1.56
17,COc1ccc(S(=O)(=O)N(CC(C)C)CC(O)C(Cc2ccc(NCc3nc(N4CCCCC4)sc3-c3sc4c(c3C(=O)O)CC(C)(C)CC4)cc2)NC(=O)OC2COC3(C)OCCC23)cc1 (stereo not shown) [Compound I-737],1.99
18,COc1ccc(S(=O)(=O)N(CC(C)C)CC(O)C(Cc2ccc(NCc3nc(N4CCOCC4)sc3-c3sc4c(c3C(=O)O)CC(C)(C)CC4)cc2)NC(=O)OC2COC3(C)OCCC23)cc1 (stereo not shown) [Compound I-738],1.8
19,COc1ccc(S(=O)(=O)N(CC(C)C)CC(O)C(Cc2ccc(NCc3ccc(N4CC(C)(C)C4=O)cc3-c3sc4c(c3C(=O)O)CC(C)(C)CC4)cc2)NC(=O)OC2COC3(C)OCCC23)cc1 (stereo not shown) [Compound I-740],1.6
20,COc1ccc(S(=O)(=O)N(CC(C)C)CC(O)C(Cc2ccc(N(C)Cc3ccc(N4CCCCC4=O)cc3-c3sc4c(c3C(=O)O)CC(C)(C)CC4)cc2)NC(=O)OC2COC3(C)OCCC23)cc1 (stereo not shown) [Compound I-743],2.32
21,COc1ccc(S(=O)(=O)N(CC(C)C)CC(O)C(Cc2ccc(N(C)Cc3ccc(N4CCCC4=O)cc3-c3sc4c(c3C(=O)O)CC(C)(C)CC4)cc2)NC(=O)OC2COC3(C)OCCC23)cc1 (stereo not shown) [Compound I-744],2.14
22,COc1ccc(S(=O)(=O)N(CC(C)C)CC(O)C(Cc2ccc(N(C)Cc3ccc(C)cc3C(=O)Nc3sc4c(c3C(=O)O)CC(C)(C)CC4)cc2)NC(=O)OC2COC3(C)OCCC23)cc1 (stereo not shown) [Compound I-745],3.39

row,Compound,IC50 [nM]
1,COc1ccc(S(=O)(=O)N(CC(C)C)CC(O)C(Cc2ccc(N(C)Cc3cc(C)ccc3C(=O)Nc3sc4c(c3C(=O)O)CC(C)(C)CC4)cc2)NC(=O)OC2COC3(C)OCCC23)cc1 (stereo not shown) [Compound I-746],2.81
2,COc1ccc(S(=O)(=O)N(CC(C)C)CC(O)C(Cc2ccc(N(C)Cc3cccc(C)c3C(=O)Nc3sc4c(c3C(=O)O)CC(C)(C)CC4)cc2)NC(=O)OC2COC3(C)OCCC23)cc1 (stereo not shown) [Compound I-747],4.35
3,COc1ccc(S(=O)(=O)N(CC(C)C)CC(O)C(Cc2ccc(NCc3c(F)cccc3C(=O)Nc3sc4c(c3C(=O)O)CC(C)(C)CC4)cc2)NC(=O)OC2COC3(C)OCCC23)cc1 (stereo not shown) [Compound I-748],2.39
4,COc1ccc(S(=O)(=O)N(CC(C)C)CC(O)C(Cc2ccc(NCc3cccc(F)c3C(=O)Nc3sc4c(c3C(=O)O)CC(C)(C)CC4)cc2)NC(=O)OC2COC3(C)OCCC23)cc1 (stereo not shown) [Compound I-749],2.33
5,COc1ccc(S(=O)(=O)N(CC(C)C)CC(O)C(Cc2ccc(N(C)Cc3ccc(N4CC(C)(C)C4=O)cc3-c3sc4c(c3C(=O)O)CC(C)(C)CC4)cc2)NC(=O)OC2COC3(C)OCCC23)cc1 (stereo not shown) [Compound I-750],4.6
6,COc1ccc(S(=O)(=O)N(CC(C)C)CC(O)C(Cc2ccc(NC3CCCc4c(-c5sc6c(c5C(=O)O)CC(C)(C)CC6)cccc43)cc2)NC(=O)OC2COC3(C)OCCC23)cc1 (stereo not shown) [Compound I-751],15.7
7,COc1ccc(S(=O)(=O)N(CC(C)C)CC(O)C(Cc2ccc(NC3CCCc4c(-c5sc6c(c5C(=O)O)CC(C)(C)CC6)cccc43)cc2)NC(=O)OC2COC3(C)OCCC23)cc1 (stereo not shown) [Compound I-752],13.3
8,COc1ccc(S(=O)(=O)N(CC(C)C)CC(O)C(Cc2ccc(NCc3nc(N4CCC4)sc3-c3sc4c(c3C(=O)O)CC(C)(C)CC4)cc2)NC(=O)OC2COC3(C)OCCC23)cc1 (stereo not shown) [Compound I-753],2.39
9,COc1ccc(S(=O)(=O)N(CC(C)C)CC(O)C(Cc2ccc(NCc3cc4c(cc3-c3sc5c(c3C(=O)O)CC(C)(C)CC5)OCC(=O)N4)cc2)NC(=O)OC2COC3(C)OCCC23)cc1 (stereo not shown) [Compound I-754],2.49
10,COc1ccc(S(=O)(=O)N(CC(C)C)CC(O)C(Cc2ccc(N(C)Cc3nc(N4CCCC4)ccc3-c3sc4c(c3C(=O)O)CC(C)(C)CC4)cc2)NC(=O)OC2COC3(C)OCCC23)cc1 (stereo not shown) [Compound I-755],2.69
11,COc1ccc(S(=O)(=O)N(CC(C)C)CC(O)C(Cc2ccc(N(C)Cc3nc(N4CCCCC4)sc3-c3sc4c(c3C(=O)O)CC(C)(C)CC4)cc2)NC(=O)OC2COC3(C)OCCC23)cc1 (stereo not shown) [Compound I-756],3.46
12,COc1ccc(S(=O)(=O)N(CC(C)C)CC(O)C(Cc2ccc(N(C)Cc3nc(N4CCOCC4)sc3-c3sc4c(c3C(=O)O)CC(C)(C)CC4)cc2)NC(=O)OC2COC3(C)OCCC23)cc1 (stereo not shown) [Compound I-757],3.02
13,COc1ccc(S(=O)(=O)N(CC(C)C)CC(O)C(Cc2ccc(N(C)Cc3nc(N4CCN(C)CC4)sc3-c3sc4c(c3C(=O)O)CC(C)(C)CC4)cc2)NC(=O)OC2COC3(C)OCCC23)cc1 (stereo not shown) [Compound I-758],1.62
14,COc1ccc(S(=O)(=O)N(CC(C)C)CC(O)C(Cc2ccc(NCc3cc4c(cc3-c3sc5c(c3C(=O)O)CC(C)(C)CC5)OCC(=O)N4C)cc2)NC(=O)OC2COC3(C)OCCC23)cc1 (stereo not shown) [Compound I-759],2.55
15,COc1ccc(S(=O)(=O)N(CC(C)C)CC(O)C(Cc2ccc(NCc3nc(N(C4CCCCC4)C4CCCCC4)sc3-c3sc4c(c3C(=O)O)CC(C)(C)CC4)cc2)NC(=O)OC2COC3(C)OCCC23)cc1 (stereo not shown) [Compound I-760],3.38
16,COc1ccc(S(=O)(=O)N(CC(C)C)CC(O)C(Cc2ccc(N(C)Cc3nc(N(C4CCCCC4)C4CCCCC4)sc3-c3sc4c(c3C(=O)O)CC(C)(C)CC4)cc2)NC(=O)OC2COC3(C)OCCC23)cc1 (stereo not shown) [Compound I-761],6.76
17,COc1ccc(S(=O)(=O)N(CC(C)C)CC(O)C(Cc2ccc(N(C)Cc3cc(OC)ccc3C(=O)Nc3sc4c(c3C(=O)O)CC(C)(C)CC4)cc2)NC(=O)OC2COC3(C)OCCC23)cc1 (stereo not shown) [Compound I-762],6.23
18,CCCCCCCCCCCCCC(=O)Nc1ccc(CNc2ccc(CC(NC(=O)OC3COC4(C)OCCC34)C(O)CN(CC(C)C)S(=O)(=O)c3ccc(OC)cc3)cc2)c(-c2sc3c(c2C(=O)O)CC(C)(C)CC3)c1 (stereo not shown) [Compound I-763],3.07
19,COc1ccc(S(=O)(=O)N(CC(C)C)CC(O)C(Cc2ccc(NCC3CC(C)(C)CCC3c3sc4c(c3C(=O)O)CC(C)(C)CC4)cc2)NC(=O)OC2COC3(C)OCCC23)cc1 (stereo not shown) [Compound I-764],2.81
20,COc1ccc(S(=O)(=O)N(CC(C)C)CC(O)C(Cc2ccc(NCC3CC(C)(C)CCC3c3sc4c(c3C(=O)O)CC(C)(C)CC4)cc2)NC(=O)OC2COC3(C)OCCC23)cc1 (stereo not shown) [Compound I-765],2.96
21,COc1ccc(S(=O)(=O)N(CC(C)C)CC(O)C(Cc2ccc(NCc3ccccc3-c3cnc(-c4sc5c(c4C(=O)O)CC(C)(C)CC5)s3)cc2)NC(=O)OC2COC3(C)OCCC23)cc1 (stereo not shown) [Compound I-766],3.28
